≈ marks a conversion by molar mass, not a printed value.
How the values were obtained:
[1] = system: Escherichia coli (E. coli) BAS849; test: Antibacterial activity, microbroth dilution MIC (Table 1); type: cell-based; conditions: microbroth dilution, super sensitive Gram-negative E. coli BAS849, read-out: MIC, BAS849
Procedure, shortened: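 Values are MICs (μg/mL): the smallest drug amount at which macroscopically visible bacterial growth is absent under assay conditions, from a microdilution method in broth.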

[2] = system: Staphylococcus aureus (S. aureus) 29213; test: as above; type: cell-based; conditions: microbroth dilution, Gram-positive S. aureus 29213, read-out: MIC, 29213
Procedure, shortened: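 MIC (μg/mL) is taken as the lowest concentration with no macroscopically visible growth. Strains tested by microbroth dilution: Gram-positive S. aureus 29213, control Gram-negative E. coli 25922, and super-sensitive E. coli BAS849.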

E. coli 25922 = test: as above; type: cell-based, Escherichia coli; conditions: Escherichia coli; microbroth dilution; control Gram-negative E. coli 25922 strain; read-out: MIC, 25922
Procedure, shortened: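 Growth inhibition by microbroth dilution. MIC = lowest μg/mL with no visible growth. Strain 25922 is the control Gram-negative; BAS849 is hypersensitive.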

E. coli LZ3111 = test: Antibacterial activity, MIC, quinolone resistant strain (Table 2); type: cell-based; conditions: Escherichia coli, LZ3111, read-out: MIC LZ3111
Procedure, shortened: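 Growth inhibition assessed by serial drug dilution in broth; endpoint was absence of macroscopically visible growth, reported as MIC, μg/mL.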

| Structure (SMILES) | MIC [1] [µg/mL] | MIC [2] [µg/mL] | MIC (E. coli 25922) [µg/mL] | MIC (E. coli LZ3111) [µg/mL] |
| --- | --- | --- | --- | --- |
| CCc1cc(C(=O)O)c(=O)[nH]c1-c1ccc2c(c1)cc(CN[C@H](CC)c1ccccc1)n2C [Cpd 118, (R)-5-ethyl-6-(1-methyl-2-((1-phenylpropylamino)methyl)-1H-indol-5-yl)-2-oxo-1,2-dihydropyridine-3-carboxylic acid] | < 1 | 1 to 3.5 (≈ 2.25 to 7.89 µM) | 1 to 3.5 (≈ 2.25 to 7.89 µM) | 12.5 to 150 (≈ 28.2 to 338 µM) |
| CCc1cc(C(=O)O)c(=O)[nH]c1-c1cc(C)c2c(c1)cc(CN1CCCC1)n2C [Cpd 99, 6-(1,7-dimethyl-2-(pyrrolidin-1-ylmethyl)-1H-indol-5-yl)-5-ethyl-2-oxo-1,2-dihydropyridine-3-carboxylic acid] | < 1 | 12.5 to 150 (≈ 31.8 to 381 µM) | 3.5 to 12.5 (≈ 8.89 to 31.8 µM) | 12.5 to 150 (≈ 31.8 to 381 µM) |
| CCc1cc(C(=O)O)c(=O)[nH]c1-c1cc2cc(CN(CC)CC)n(C)c2cc1C [Cpd 95, 6-(2-((diethylamino)methyl)-1,6-dimethyl-1H-indol-5-yl)-5-ethyl-2-oxo-1,2-dihydropyridine-3-carboxylic acid] | 12.5 to 150 (≈ 31.6 to 379 µM) | 12.5 to 150 (≈ 31.6 to 379 µM) | 12.5 to 150 (≈ 31.6 to 379 µM) | 12.5 to 150 (≈ 31.6 to 379 µM) |
| CCc1c(-c2ccc3c(c2)cc(CN2C[C@@H](C)O[C@@H](C)C2)n3C)[nH]c(=O)c(C(=O)O)c1O [Cpd 172, 6-(2-(((2S,6R)-2,6-dimethylmorpholino)methyl)-1-methyl-1H-indol-5-yl)-5-ethyl-4-hydroxy-2-oxo-1,2-dihydropyridine-3-carboxylic acid] | < 1 | 3.5 to 12.5 (≈ 7.96 to 28.4 µM) | 12.5 to 150 (≈ 28.4 to 341 µM) | 12.5 to 150 (≈ 28.4 to 341 µM) |
| CCc1c(-c2ccc3c(c2)cc(CNCCN)n3C)[nH]c(=O)c(C(=O)O)c1O [Cpd 205, 6-(2-((2-aminoethylamino)methyl)-1-methyl-1H-indol-5-yl)-5-ethyl-4-hydroxy-2-oxo-1,2-dihydropyridine-3-carboxylic acid] | 1 to 3.5 (≈ 2.6 to 9.1 µM) | 12.5 to 150 (≈ 32.5 to 390 µM) | 12.5 to 150 (≈ 32.5 to 390 µM) | 12.5 to 150 (≈ 32.5 to 390 µM) |
| CCc1c(-c2ccc3c(c2)cc(CNCc2ccc(C)cc2)n3C)[nH]c(=O)c(C(=O)O)c1O [Cpd 297, 5-ethyl-4-hydroxy-6-(1-methyl-2-((4-methylbenzylamino)methyl)-1H-indol-5-yl)-2-oxo-1,2-dihydropyridine-3-carboxylic acid] | < 1 | 1 to 3.5 (≈ 2.24 to 7.86 µM) | < 1 | 12.5 to 150 (≈ 28.1 to 337 µM) |
| CCc1c(-c2ccc3c(c2)c2c(n3C)CCCC2)[nH]c(=O)c(C(=O)O)c1O [Cpd 28, 5-ethyl-4-hydroxy-6-(9-methyl-2,3,4,9-tetrahydro-1H-carbazol-6-yl)-2-oxo-1,2-dihydropyridine-3-carboxylic acid] | 12.5 to 150 (≈ 34.1 to 409 µM) | < 1 | 12.5 to 150 (≈ 34.1 to 409 µM) | 12.5 to 150 (≈ 34.1 to 409 µM) |
| CCc1c(-c2ccc3c(c2)cc(CNC2CNC2)n3C)[nH]c(=O)c(C(=O)O)c1O.Cl.Cl [Cpd 244, 6-(2-((azetidin-3-ylamino)methyl)-1-methyl-1H-indol-5-yl)-5-ethyl-4-hydroxy-2-oxo-1,2-dihydropyridine-3-carboxylic acid dihydrochloride] | 1 to 3.5 | 12.5 to 150 | 12.5 to 150 | 12.5 to 150 |
| CCc1c(-c2ccc3c(c2)cc(CN2CCCCC2CCOC)n3C)[nH]c(=O)c(C(=O)O)c1O (centres unmarked) [Cpd 259, 5-ethyl-4-hydroxy-6-(2-((2-(2-methoxyethyl)piperidin-1-yl)methyl)-1-methyl-1H-indol-5-yl)-2-oxo-1,2-dihydropyridine-3-carboxylic acid] | < 1 | 3.5 to 12.5 (≈ 7.49 to 26.7 µM) | 3.5 to 12.5 (≈ 7.49 to 26.7 µM) | 12.5 to 150 (≈ 26.7 to 321 µM) |
| CCc1cc(C(=O)O)c(=O)[nH]c1-c1ccc2c(c1)cc(C(C)N1CCCC1)n2C (centres unmarked) [Cpd 157, 5-ethyl-6-(1-methyl-2-(1-(pyrrolidin-1-yl)ethyl)-1H-indol-5-yl)-2-oxo-1,2-dihydropyridine-3-carboxylic acid] | < 1 | 12.5 to 150 (≈ 31.8 to 381 µM) | 3.5 to 12.5 (≈ 8.89 to 31.8 µM) | 12.5 to 150 (≈ 31.8 to 381 µM) |
| CCc1c(-c2ccc3c(c2)cc(CN2CCCCC2CCCOC)n3C)[nH]c(=O)c(C(=O)O)c1O (centres unmarked) [Cpd 260, 5-ethyl-4-hydroxy-6-(2-((2-(3-methoxypropyl)piperidin-1-yl)methyl)-1-methyl-1H-indol-5-yl)-2-oxo-1,2-dihydropyridine-3-carboxylic acid] | < 1 | 3.5 to 12.5 (≈ 7.27 to 26 µM) | 3.5 to 12.5 (≈ 7.27 to 26 µM) | 12.5 to 150 (≈ 26 to 311 µM) |
| CC(C)c1c(-c2ccc3c(c2)cc(CN2CCCC2)n3C)[nH]c(=O)c(C(=O)O)c1O [Cpd 319, 4-hydroxy-5-isopropyl-6-(1-methyl-2-(pyrrolidin-1-ylmethyl)-1H-indol-5-yl)-2-oxo-1,2-dihydropyridine-3-carboxylic acid] | < 1 | 3.5 to 12.5 (≈ 8.55 to 30.5 µM) | 1 to 3.5 (≈ 2.44 to 8.55 µM) | 12.5 to 150 (≈ 30.5 to 366 µM) |
| CCc1cc(C(=O)O)c(=O)[nH]c1-c1cc(F)c2c(c1)cc(CN(C)C)n2C [Cpd 106, 6-(2-((dimethylamino)methyl)-7-fluoro-1-methyl-1H-indol-5-yl)-5-ethyl-2-oxo-1,2-dihydropyridine-3-carboxylic acid] | < 1 | 12.5 to 150 (≈ 33.7 to 404 µM) | 1 to 3.5 (≈ 2.69 to 9.42 µM) | 12.5 to 150 (≈ 33.7 to 404 µM) |
| CCc1c(-c2ccc3nc(N(C)C)oc3c2)[nH]c(=O)c(C(=O)O)c1O [Cpd 18, 6-(2-(dimethylamino)benzo[d]oxazol-6-yl)-5-ethyl-4-hydroxy-2-oxo-1,2-dihydropyridine-3-carboxylic acid] | 3.5 to 12.5 (≈ 10.2 to 36.4 µM) | 1 to 3.5 (≈ 2.91 to 10.2 µM) | 12.5 to 150 (≈ 36.4 to 437 µM) | 12.5 to 150 (≈ 36.4 to 437 µM) |
| CCc1c(-c2ccc3c(c2)cc(CNCCNC)n3C)[nH]c(=O)c(C(=O)O)c1O [Cpd 204, 5-ethyl-4-hydroxy-6-(1-methyl-2-((2-(methylamino)ethylamino)methyl)-1H-indol-5-yl)-2-oxo-1,2-dihydropyridine-3-carboxylic acid] | 1 to 3.5 (≈ 2.51 to 8.78 µM) | 12.5 to 150 (≈ 31.4 to 376 µM) | 3.5 to 12.5 (≈ 8.78 to 31.4 µM) | 12.5 to 150 (≈ 31.4 to 376 µM) |
| CN(C)Cc1cc2cc(-c3cc(O)c(C(=O)O)c(=O)[nH]3)ccc2n1C [Cpd 326, 6-(2-((dimethylamino)methyl)-1-methyl-1H-indol-5-yl)-4-hydroxy-2-oxo-1,2-dihydropyridine-3-carboxylic acid] | 12.5 to 150 (≈ 36.6 to 439 µM) | 12.5 to 150 (≈ 36.6 to 439 µM) | 12.5 to 150 (≈ 36.6 to 439 µM) | 12.5 to 150 (≈ 36.6 to 439 µM) |
| CCc1cc(C(=O)O)c(=O)[nH]c1-c1ccc2c(c1)cc(CNC(C)(C)C)n2C [Cpd 113, 6-(2-((tert-butylamino)methyl)-1-methyl-1H-indol-5-yl)-5-ethyl-2-oxo-1,2-dihydropyridine-3-carboxylic acid] | < 1 | 12.5 to 150 (≈ 32.8 to 393 µM) | < 1 | 12.5 to 150 (≈ 32.8 to 393 µM) |
| CCc1cc(C(=O)O)c(=O)[nH]c1-c1ccc2c(c1)cc(CN)n2C [Cpd 150, 6-(2-(aminomethyl)-1-methyl-1H-indol-5-yl)-5-ethyl-2-oxo-1,2-dihydropyridine-3-carboxylic acid] | < 1 | 12.5 to 150 (≈ 38.4 to 461 µM) | 1 to 3.5 (≈ 3.07 to 10.8 µM) | 12.5 to 150 (≈ 38.4 to 461 µM) |
| CCc1cc(C(=O)O)c(=O)[nH]c1-c1cc(C)c2c(c1)cc(CN(CC)CC)n2C [Cpd 104, 6-(2-((diethylamino)methyl)-1,7-dimethyl-1H-indol-5-yl)-5-ethyl-2-oxo-1,2-dihydropyridine-3-carboxylic acid] | < 1 | 12.5 to 150 (≈ 31.6 to 379 µM) | 3.5 to 12.5 (≈ 8.85 to 31.6 µM) | 12.5 to 150 (≈ 31.6 to 379 µM) |
| CCc1cc(C(=O)O)c(=O)[nH]c1-c1ccc2c(c1)cc(CN[C@@H](C)c1ccccc1)n2C [Cpd 117, (S)-5-ethyl-6-(1-methyl-2-((1-phenylethylamino)methyl)-1H-indol-5-yl)-2-oxo-1,2-dihydropyridine-3-carboxylic acid] | < 1 | 12.5 to 150 (≈ 29.1 to 349 µM) | < 1 | 12.5 to 150 (≈ 29.1 to 349 µM) |
| CCc1c(-c2ccc3c(c2)cc(CN(C)C)n3C)[nH]c(=O)c(C(=O)O)c1N [Cpd 330, 4-amino-6-(2-((dimethylamino)methyl)-1-methyl-1H-indol-5-yl)-5-ethyl-2-oxo-1,2-dihydropyridine-3-carboxylic acid] | < 1 | 12.5 to 150 (≈ 33.9 to 407 µM) | 3.5 to 12.5 (≈ 9.5 to 33.9 µM) | 12.5 to 150 (≈ 33.9 to 407 µM) |
| CCc1cc(C(=O)O)c(=O)[nH]c1-c1ccc2c(c1)c(CN(Cc1ccccc1)Cc1ccccc1)cn2C [Cpd 77, 6-(3-((dibenzylamino)methyl)-1-methyl-1H-indol-5-yl)-5-ethyl-2-oxo-1,2-dihydropyridine-3-carboxylic acid] | 3.5 to 12.5 (≈ 6.92 to 24.7 µM) | 3.5 to 12.5 (≈ 6.92 to 24.7 µM) | 12.5 to 150 (≈ 24.7 to 297 µM) | 12.5 to 150 (≈ 24.7 to 297 µM) |
| CCc1cc(C(=O)O)c(=O)[nH]c1-c1cc(C)c2c(c1)cc(CN1CCOCC1)n2C [Cpd 103, 6-(1,7-dimethyl-2-(morpholinomethyl)-1H-indol-5-yl)-5-ethyl-2-oxo-1,2-dihydropyridine-3-carboxylic acid] | < 1 | 12.5 to 150 (≈ 30.5 to 366 µM) | 12.5 to 150 (≈ 30.5 to 366 µM) | 12.5 to 150 (≈ 30.5 to 366 µM) |
| CCc1c(-c2ccc3c(c2)c(C#N)c(N(C)C)n3C)[nH]c(=O)c(C(=O)O)c1O [Cpd 361, 6-(3-cyano-2-(dimethylamino)-1-methyl-1H-indol-5-yl)-5-ethyl-4-hydroxy-2-oxo-1,2-dihydropyridine-3-carboxylic acid] | 1 to 3.5 (≈ 2.63 to 9.2 µM) | 3.5 to 12.5 (≈ 9.2 to 32.9 µM) | 12.5 to 150 (≈ 32.9 to 394 µM) | 12.5 to 150 (≈ 32.9 to 394 µM) |
| CCc1c(-c2ccc3c(c2)cc(CN(C)CCOC)n3C)[nH]c(=O)c(C(=O)O)c1O [Cpd 300, 5-ethyl-4-hydroxy-6-(2-(((2-methoxyethyl)(methyl)amino)methyl)-1-methyl-1H-indol-5-yl)-2-oxo-1,2-dihydropyridine-3-carboxylic acid] | < 1 | 12.5 to 150 (≈ 30.2 to 363 µM) | 3.5 to 12.5 (≈ 8.46 to 30.2 µM) | 12.5 to 150 (≈ 30.2 to 363 µM) |
| CCc1cc(C(=O)O)c(=O)[nH]c1-c1cc(F)c2c(c1)cc(CN1CCCC1)n2C [Cpd 97, 5-ethyl-6-(7-fluoro-1-methyl-2-(pyrrolidin-1-ylmethyl)-1H-indol-5-yl)-2-oxo-1,2-dihydropyridine-3-carboxylic acid] | < 1 | 12.5 to 150 (≈ 31.5 to 377 µM) | 1 to 3.5 (≈ 2.52 to 8.81 µM) | 12.5 to 150 (≈ 31.5 to 377 µM) |

— patent US9409905B2, “Antibacterial compounds and methods for use” (PTC THERAPEUTICS, INC., priority 2011, dated 2016)
